Reference: ChEMBL document CHEMBL1148788 (J Med Chem, 2007)

Columns and labels:
[1] = target: T1, Neuronal acetylcholine receptor subunit alpha-7 (Homo sapiens, UniProt P36544); assay: Displacement of [3H]methyllycaconitine from human alpha-7 in tsA201 cells coexpressed with 5HT3A receptor; type: cell-based
[2] = target: T1, Neuronal acetylcholine receptor subunit alpha-7; assay: Displacement of [3H]methyllycaconitine from alpha7 nAChR in tsA201 cells co-expressed with Ric3; type: cell-based
[3] = target: T2, Neuronal acetylcholine receptor; alpha3/beta4 (Rattus norvegicus, UniProt P04757+P12392); assay: Antagonist activity at rat alpha3beta4 nAChR expressed in HEK293 cells by FMP assay; type: functional, cell-based, Homo sapiens; details: for pIC50: hek293; for IC50: read-out: IC50
[4] = target: T2, Neuronal acetylcholine receptor; alpha3/beta4; assay: Displacement of [3H]epibatidine from recombinant rat alpha-3-beta-4 nAChr in HEK293 cell line; type: cell-based; details: for pKi: hek293
[5] = cells; type: functional, cell-based; details: Homo sapiens, HEK293
[6] = target: T3, 5-hydroxytryptamine receptor 3A (Homo sapiens, UniProt P46098); assay: Displacement of [3H]GR65630 from human 5HT3A receptor in HEK293 cells; type: cell-based; details: for pKi: hek293
T3 sequence (P46098 whole entry): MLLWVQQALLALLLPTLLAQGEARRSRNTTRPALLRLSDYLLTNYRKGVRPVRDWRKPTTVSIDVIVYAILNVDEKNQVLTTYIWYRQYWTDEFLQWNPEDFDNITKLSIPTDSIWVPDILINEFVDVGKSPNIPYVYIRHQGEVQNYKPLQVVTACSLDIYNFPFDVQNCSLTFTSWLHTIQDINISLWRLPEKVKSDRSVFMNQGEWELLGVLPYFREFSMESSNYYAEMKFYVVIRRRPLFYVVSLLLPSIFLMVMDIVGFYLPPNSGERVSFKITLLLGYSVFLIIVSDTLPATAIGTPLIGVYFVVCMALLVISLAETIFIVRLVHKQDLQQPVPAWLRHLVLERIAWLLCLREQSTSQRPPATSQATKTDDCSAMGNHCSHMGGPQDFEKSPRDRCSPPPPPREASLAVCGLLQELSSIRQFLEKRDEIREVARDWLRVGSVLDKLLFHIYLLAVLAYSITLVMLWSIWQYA

[7] = target: T4, Glycine receptor subunit alpha-1 (Homo sapiens, UniProt P23415); assay: Antagonist activity at human glycine alpha-1 receptor in HEK293 cells by FMP assay; type: functional, cell-based; details: for pIC50: hek293
T4 sequence (P23415 whole entry): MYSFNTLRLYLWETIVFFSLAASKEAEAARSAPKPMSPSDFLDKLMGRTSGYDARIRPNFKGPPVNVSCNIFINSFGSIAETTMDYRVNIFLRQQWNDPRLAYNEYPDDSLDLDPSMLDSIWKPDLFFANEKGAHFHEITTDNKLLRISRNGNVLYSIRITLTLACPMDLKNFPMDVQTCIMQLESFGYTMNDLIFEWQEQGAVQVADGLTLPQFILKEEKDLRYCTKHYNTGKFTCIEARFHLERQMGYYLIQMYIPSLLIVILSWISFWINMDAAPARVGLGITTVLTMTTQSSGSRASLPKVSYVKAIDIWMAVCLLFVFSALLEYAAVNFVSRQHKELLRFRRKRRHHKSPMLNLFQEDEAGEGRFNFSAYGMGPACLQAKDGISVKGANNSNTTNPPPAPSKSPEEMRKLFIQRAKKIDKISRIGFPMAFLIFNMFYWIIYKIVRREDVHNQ

[8] = target: Neuronal acetylcholine receptor; alpha4/beta4 (Rattus norvegicus, UniProt P09483+P12392); assay: Displacement of [3H]epibatidine from recombinant rat alpha-4-beta-4 nAChr in HEK293 cell line; type: cell-based; details: for pKi: hek293
[9] = target: Neuronal acetylcholine receptor; alpha4/beta2 (Rattus norvegicus, UniProt P09483+P12390); assay: Displacement of [3H]epibatidine from rat recombinant alpha-4-beta-2 nAChR in HEK293 cell line; type: cell-based; details: for pKi: hek293; for Ki: read-out: Ki
[10] = target: T3, 5-hydroxytryptamine receptor 3A; assay: Antagonist activity at human 5HT3A receptor expressed in HEK293 cells by FMP assay; type: functional, cell-based; details: for pIC50: hek293
[11] = target: T1, Neuronal acetylcholine receptor subunit alpha-7; assay: Antagonist activity at human alpha-7 nAChR in tsA201 cells coexpressed with Ric3 by FMP assay; type: functional, cell-based

Chain of Neuronal acetylcholine receptor; alpha4/beta4 (P09483 whole entry): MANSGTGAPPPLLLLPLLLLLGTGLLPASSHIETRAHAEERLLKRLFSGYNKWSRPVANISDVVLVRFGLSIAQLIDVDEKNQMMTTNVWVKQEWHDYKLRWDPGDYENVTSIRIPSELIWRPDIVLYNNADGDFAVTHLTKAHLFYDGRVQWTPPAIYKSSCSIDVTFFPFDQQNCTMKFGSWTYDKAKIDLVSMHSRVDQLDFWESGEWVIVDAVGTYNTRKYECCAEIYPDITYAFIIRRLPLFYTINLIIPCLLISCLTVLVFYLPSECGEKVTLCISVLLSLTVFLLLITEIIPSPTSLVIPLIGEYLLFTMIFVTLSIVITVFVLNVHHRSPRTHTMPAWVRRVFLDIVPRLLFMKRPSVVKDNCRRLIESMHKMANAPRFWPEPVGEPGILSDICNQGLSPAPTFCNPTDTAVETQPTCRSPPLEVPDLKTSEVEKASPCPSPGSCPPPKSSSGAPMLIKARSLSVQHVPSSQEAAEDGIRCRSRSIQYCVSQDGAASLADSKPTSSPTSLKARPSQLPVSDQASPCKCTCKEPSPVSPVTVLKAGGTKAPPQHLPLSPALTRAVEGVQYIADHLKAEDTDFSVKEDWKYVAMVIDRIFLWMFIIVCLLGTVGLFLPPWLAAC
Chain of Neuronal acetylcholine receptor; alpha4/beta4 (P12392 whole entry): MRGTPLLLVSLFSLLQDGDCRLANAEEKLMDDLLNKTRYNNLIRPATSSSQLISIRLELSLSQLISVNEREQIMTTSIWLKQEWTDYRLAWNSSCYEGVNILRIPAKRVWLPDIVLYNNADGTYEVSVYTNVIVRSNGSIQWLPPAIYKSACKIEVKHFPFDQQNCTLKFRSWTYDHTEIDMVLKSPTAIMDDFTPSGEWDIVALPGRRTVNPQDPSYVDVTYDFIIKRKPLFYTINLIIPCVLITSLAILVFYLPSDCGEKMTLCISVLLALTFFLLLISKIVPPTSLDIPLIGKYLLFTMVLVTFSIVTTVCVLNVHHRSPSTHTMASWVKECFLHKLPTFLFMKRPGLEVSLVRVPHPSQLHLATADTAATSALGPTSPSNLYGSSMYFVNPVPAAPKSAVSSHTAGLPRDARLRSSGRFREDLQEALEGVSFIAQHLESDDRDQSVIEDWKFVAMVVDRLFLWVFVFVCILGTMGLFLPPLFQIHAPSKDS
Chain of Neuronal acetylcholine receptor; alpha4/beta2 (P09483 whole entry): as the sequence (P09483 whole entry) above
Chain of Neuronal acetylcholine receptor; alpha4/beta2 (P12390 whole entry): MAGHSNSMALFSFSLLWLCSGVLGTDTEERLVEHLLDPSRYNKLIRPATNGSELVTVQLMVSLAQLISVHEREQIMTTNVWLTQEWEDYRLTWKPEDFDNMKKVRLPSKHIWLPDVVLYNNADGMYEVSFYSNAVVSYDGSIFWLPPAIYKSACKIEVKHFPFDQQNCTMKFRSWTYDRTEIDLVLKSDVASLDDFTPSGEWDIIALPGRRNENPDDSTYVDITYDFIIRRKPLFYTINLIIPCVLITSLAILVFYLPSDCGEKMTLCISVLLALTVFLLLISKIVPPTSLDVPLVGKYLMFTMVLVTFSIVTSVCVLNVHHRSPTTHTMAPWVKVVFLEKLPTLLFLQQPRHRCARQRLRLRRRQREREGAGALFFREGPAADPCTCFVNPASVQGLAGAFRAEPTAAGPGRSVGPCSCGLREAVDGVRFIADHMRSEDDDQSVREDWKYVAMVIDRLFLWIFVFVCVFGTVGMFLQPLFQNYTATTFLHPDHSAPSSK
T1 sequence (P36544 whole entry): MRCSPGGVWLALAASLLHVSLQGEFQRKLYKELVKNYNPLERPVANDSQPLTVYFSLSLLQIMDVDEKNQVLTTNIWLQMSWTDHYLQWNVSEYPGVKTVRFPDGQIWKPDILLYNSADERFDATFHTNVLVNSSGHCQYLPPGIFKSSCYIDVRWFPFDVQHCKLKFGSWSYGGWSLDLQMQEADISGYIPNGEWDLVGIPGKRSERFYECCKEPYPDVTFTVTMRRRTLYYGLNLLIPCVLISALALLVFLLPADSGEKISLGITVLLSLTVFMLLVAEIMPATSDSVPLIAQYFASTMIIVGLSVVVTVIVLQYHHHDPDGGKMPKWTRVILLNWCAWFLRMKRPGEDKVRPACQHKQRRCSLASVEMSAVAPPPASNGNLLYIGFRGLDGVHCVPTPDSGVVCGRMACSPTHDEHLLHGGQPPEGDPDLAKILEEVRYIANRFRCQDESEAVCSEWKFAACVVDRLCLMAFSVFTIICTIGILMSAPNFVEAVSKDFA
T2 sequence (P04757 whole entry): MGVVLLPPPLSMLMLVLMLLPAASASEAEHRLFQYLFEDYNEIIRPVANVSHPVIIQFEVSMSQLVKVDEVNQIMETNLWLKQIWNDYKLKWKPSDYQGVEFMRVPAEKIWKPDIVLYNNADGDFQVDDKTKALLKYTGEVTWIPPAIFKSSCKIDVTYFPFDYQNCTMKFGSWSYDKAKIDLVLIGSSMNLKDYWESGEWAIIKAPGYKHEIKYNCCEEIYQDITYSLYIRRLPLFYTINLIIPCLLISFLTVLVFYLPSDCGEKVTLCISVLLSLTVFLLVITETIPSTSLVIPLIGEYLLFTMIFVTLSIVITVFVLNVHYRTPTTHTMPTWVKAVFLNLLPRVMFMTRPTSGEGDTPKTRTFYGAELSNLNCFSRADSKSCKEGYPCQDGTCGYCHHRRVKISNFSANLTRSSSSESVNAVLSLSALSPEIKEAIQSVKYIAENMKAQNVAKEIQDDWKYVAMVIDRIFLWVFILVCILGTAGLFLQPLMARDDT
T2 sequence (P12392 whole entry): as the sequence (P12392 whole entry) above

Compound	Ki ([1]; read-out: Ki)	Ki ([1]; read-out: pKi (converted))	Ki ([2]; read-out: Ki)	Ki ([2]; read-out: pKi (converted))	pIC50 [3]	IC50 [3]	Ki [4]	pKi [4]	IC50 ([5]; read-out: IC50)	IC50 ([5]; read-out: pIC50 (converted))	Ki [6]	IC50 [7]	pIC50 [7]	Ki [8]	pKi [8]	pKi [9]	Ki [9]	IC50 ([10]; read-out: IC50)	IC50 ([11]; read-out: IC50)	IC50 ([11]; read-out: pIC50 (converted))	other results
C=CC[N+](C)(C)Cc1c2n(c3ccccc13)Cc1c(C[N+](C)(C)CC=C)c3ccccc3n1C2.[Br-].[Br-]	4.4 µM	3.98 µM	2.9 µM	3.16 µM	< 4	> 100 µM	> 100 µM	< 4	> 100 µM	> 100 µM	> 100 µM	> 100 µM	< 4	> 100 µM	< 4	< 4	> 100 µM	> 100 µM	30 µM	100 µM	pKi [6]: < 4; pIC50 [10]: < 4
C=CC[N+]12CC[C@@H]3[C@@H]4[C@@H]5[C@@H](OCC=C(C1)[C@@H]5C[C@@H]32)N1c2ccccc2[C@@]23CC[N+]5(CC=C)CC6=CCO[C@H]([C@@H]([C@H]12)[C@H]6C[C@@H]35)N4c1ccccc1.[Br-].[Br-] (some centres undefined)	0.066 µM	0.0631 µM	0.03 µM	0.0316 µM		100 µM	> 100 µM	< 4	> 100 µM	> 100 µM	100 µM	> 100 µM	< 4	> 100 µM	< 4	< 4	> 100 µM	100 µM	0.28 µM	0.282 µM	
C[N+]12CCC34c5ccccc5N5/C=C6/[C@H]7C[C@H]8[C@@]9(CC[N+]8(C)C/C7=C/CO)c7ccccc7N(/C=C(/[C@@H](C[C@@H]31)/C(=C\CO)C2)[C@H]54)[C@@H]69.[Cl-].[Cl-] (some centres undefined) [TOXIFERINE]	1.6 µM	1.58 µM	2.6 µM	2.51 µM		30 µM	30 µM		> 100 µM	> 100 µM	> 100 µM	> 100 µM	< 4	> 100 µM	< 4	< 4	> 100 µM	> 100 µM	9.5 µM	9.55 µM	pKi [6]: < 4; pIC50 [10]: < 4
COc1ccc(C[N+]23CC[C@@H]4[C@@H]5[C@@H]6[C@@H](OCC=C(C2)[C@@H]6C[C@@H]43)N2c3ccccc3[C@@]34CC[N+]6(Cc7ccc(OC)c(OC)c7)CC7=CCO[C@H]([C@@H]([C@H]23)[C@H]7C[C@@H]46)N5c2ccccc2)cc1OC.[Cl-].[Cl-] (some centres undefined)	0.13 µM	0.126 µM	0.059 µM	0.0631 µM	< 4	> 100 µM	> 100 µM	< 4	> 100 µM	> 100 µM	28 µM	> 100 µM	< 4	> 100 µM	< 4	< 4	> 100 µM	30 µM	1.3 µM	1.32 µM	
C1=C2CN3CC[C@@H]4[C@@H]5[C@H]([C@@H](OC1)N1c6ccccc6[C@@]67CCN8CC9=CCO[C@H]([C@@H]([C@H]16)[C@H]9C[C@H]87)N5c1ccccc1)[C@H]2C[C@@H]43	1.1 µM		1.1 µM	1 µM		11 µM	30 µM		> 100 µM	> 100 µM	3.1 µM	> 100 µM	< 4	> 100 µM	< 4	< 4	> 100 µM	11 µM	1.6 µM	1.58 µM	IC50 ([10]; read-out: pIC50 (converted)): 12.6 µM
OC/C=C1/C[N+]2(C3C=CCCC3)CC[C@@H]3[C@@H]4/C(=C\N5c6ccccc6[C@@]67CC[N+]8(C9C=CCCC9)CC9=CCO[C@H]([C@@H]([C@H]56)[C@H]9C[C@@H]78)N4c4ccccc4)[C@H]1C[C@@H]32.[Br-].[Br-] (some centres undefined)	0.36 µM	0.316 µM	0.23 µM	0.251 µM		30 µM	100 µM		> 100 µM	> 100 µM	40 µM	> 100 µM	< 4	> 100 µM	< 4	< 4	> 100 µM	30 µM	2.3 µM	2.34 µM	
CC(=O)OCC[N+]12CC[C@@H]3[C@@H]4[C@@H]5[C@@H](OCC=C(C1)[C@@H]5C[C@@H]32)N1c2ccccc2[C@@]23CC[N+]5(CCOC(C)=O)CC6=CCO[C@H]([C@@H]([C@H]12)[C@H]6C[C@@H]35)N4c1ccccc1.[Br-].[Br-] (some centres undefined)	0.28 µM	0.251 µM	0.31 µM	0.316 µM	< 4	> 100 µM	> 100 µM	< 4	> 100 µM	> 100 µM	> 100 µM	> 100 µM	< 4	> 100 µM	< 4	< 4	> 100 µM	> 100 µM	1.6 µM	1.62 µM	pKi [6]: < 4; pIC50 [10]: < 4
